Measurements published in US20090305225A1, “Inhibition of Creatine Uptake to Promote Weight Loss” (priority 2005, published 2009).

Tests used:
[1] = system: creatine transporter (CrT) protein; test: Creatine transporter immunoreactivity in rat brain; assay type: in vivo; details: 4 hours after icv 0.4 um/kg; dorsomedial, supramamillary nucleus, III ventricle, habenular (p<0.05), paraventricular thalamic areas; FIG. 7
Experimental: In experiments involving immunohistochemistry, animals were injected icv with CoPP 0.4 umol/kg body weight or with vehicle. Four hours after injection, animals were anesthetized with halothane and perfused through the left ventricle of the heart, initially with oxygenated Krebs buffer and then with ˜350 ml of 4% paraformaldehyde in 0.1M NaCl, pH 7.4 phosphate buffered saline (PBS). Brains were extracted from the skull, hypothalamic blocks dissected (by coronal cuts anterior and posterior to hypothalamic landmarks) and post-fixed in 4% paraformaldehyde solution at 4 degrees C. overnight. The following day, the blocks were transferred to 30% sucrose and incubated overnight at 4 degrees C. […] They were allowed to dry, rewetted with PBS buffer and cover-slipped with Citifluor (Ted Pella, Reading, Calif.). Creatine transporter (CrT) and Fos studies were performed using indirect fluorescence visualization with rabbit anti-CrT (1:40; Alpha Diagnostics, San Antonio, Tex.) with goat anti-rabbit Cy3 (Jackson Immuno Research Laboratories, Inc., West Grove, Pa.) and rabbit c-Fos-AB5 (1:2,000; Oncogene Research Products, Cambridge, Mass.) with goat anti-rabbit Cy3 (1:500; Jackson Immuno Research Laboratories, Inc.) as the secondary antibody. […] Areas of interest were quantitated on each section in which they appeared and averaged to yield means+SEM of percentages. […]

Fos (c-fos protein) = test: Fos immunohistochemistry of hypothalamic sections 4 hours after icv injection; assay type: in vivo, rat; details: 4 hours after icv injection, percent of area stained
Experimental: In experiments involving immunohistochemistry, animals were injected icv with beta-GPA or with vehicle. Four hours after injection, animals were anesthetized with halothane and perfused through the left ventricle of the heart, initially with oxygenated Krebs buffer and then with ˜350 ml of 4% paraformaldehyde in 0.1M NaCl, pH 7.4 phosphate buffered saline (PBS). Brains were extracted from the skull, hypothalamic blocks dissected (by coronal cuts anterior and posterior to hypothalamic landmarks) and post-fixed in 4% paraformaldehyde solution at 4 degrees C. overnight. The following day, the blocks were transferred to 30% sucrose and incubated overnight at 4 degrees C. After freezing in Optimum Cutting Temperature (OCT) compound (Sakura, Japan), blocks were sectioned coronally at 40 um on a cryostat and sections individually floated in multi-well dishes filled with PBS. Sections were treated for 30 minutes with 0.4% Triton detergent in potassium PBS to aid in antibody penetration. Primary antibodies were added, the plates shaken gently for 1 hour at room temperature, then incubated at 4 degrees C. for 72 hours. Sections were then brought to room temperature while shaking and the primary antibody solution was removed by washing 3 times with PBS buffer. After removal of the last wash, the secondary antibody solution was added and the plates incubated for 2 hours at room temperature in the dark. Removal of the second antibody was achieved by washing three times with PBS buffer prior to mounting on subbed slides. They were allowed to dry, rewetted with PBS buffer and cover-slipped with Citifluor (Ted Pella, Reading, Calif.).
Fos studies were performed using indirect fluorescence visualization. The method utilized rabbit c-Fos-AB5 (1:2,000; Oncogene Research Products, Cambridge, Mass.) with goat anti-rabbit Cy3 (1:500; Jackson Immuno Research Laboratories, West Grove, Pa.) as the secondary antibody. […] Staining observed in experimental tissue was compared to that observed from experiment-matched negative controls. […] Immunoreactive Fos (Fos IR) was quantified by capturing images at 10× using MagnaFire 2.0 Software. These images were imported into the Metamorph 6.1 Software package and density of staining measured using Hue Saturation Intensity. Regions outlining nuclei were hand drawn with an electric pen and the total areas and stained areas measured to yield percentages of total areas with specific Fos-IR. The values for left and right dorsomedial nuclei in each rat were averaged, and the averages used to calculate means. In the case of the III ventricle, the entire image was used for quantification prior to calculating the percentage of the area with Fos-IR.

[2] = system: creatine transporter (CrT) mRNA; test: Real-Time PCR of creatine transporter mRNA in hypothalami of CoPP-treated rats; assay type: in vivo, rat; details: hypothalamus, 48 hours after icv, normalized to L32 mRNA, mean ± SEM
Experimental: RNA was purified with RNAase-free DNase (Promega) at 37 degrees C. for 30 min. The first strand of cDNA was synthesized by adding 1 ug of purified RNA from each sample to 20 ul containing MMLV reverse transcriptase (Invitrogen Life Tech). Creatine transporter (CrT) gene expression was further quantatified by Real-Time PCR using sense primer: 5′[…]′ (SEQ ID NO: 1); antisense primer: 5′[…]-3′ (SEQ ID NO:2) and TaqMan probe: 5′[…]-3′ (SEQ ID NO: 3) (MMG-Biotech). The rat ribosomal protein L32 gene was used as a loading control. Each cDNA sample (1 ul) derived from the 20 ul reverse transcription reaction and 1 ul RNA template was mixed with 24 ul master mixture (Perkin Elmer) in a 96-well TaqMan plate. The PCR was run in an ABI prism 7700 thermocycler (Applied Biosystems) at 50 degrees C. for 2 min and 95 degrees C. for 10 min; this was followed by 95 degrees C. for 15 sec and 60 degrees C. for 1 min for 40 cycles. The data were analyzed using software supplied with the ABI prism 7700.

C=Cc1c(C)c2cc3[nH]c(cc4nc(cc5nc(cc1[nH]2)C(C)=C5CCC(=O)[O-])C(CCC(=O)[O-])=C4C)c(C)c3C=C.[Co+2] [CoPP, Cobaltic protoporphyrin IX]
immunoreactive (IR) CrT compared to controls and fasted controls [1]: increased
Fos IR in the dorsomedial nucleus (Fos (c-fos protein)): 6.86 ± 5.85%
Fos IR in the paraventricular nucleus (Fos (c-fos protein)): 4.44 ± 2.22%
Fos IR in the midsection of the ventral III ventricle (Fos (c-fos protein); p<0.025): 48.3 ± 11.18%
Real-Time PCR [2]: 0.97 ± 0.050 arbitrary units
